# System: 945468-187-T-J2-PDC spheroids viability
# Assay: Anticancer human tumor 945468-187-T-J2-PDC patient-derived rectal carcinoma cell line growth inhibition [PI3K]
# Details: spheroids with HUVEC and MSC; for IC50: curve of first compound; for viability, T/C: stronger effect = lower value
# Outline: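 Agents were dosed from a top concentration near clinical Cmax (otherwise 10 microM) in half-log decrements, alone or combined with PI3K inhibitors. The spheroids contain tumor cells plus endothelial (HUVEC) and MSC stroma; viability is measured.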
# [1] = second compound 0.00316 µM, first compound 0.0316 µM
# [2] = second compound 0.00316 µM, first compound 0.1 µM
# [3] = second compound 0.00316 µM, first compound 0.316 µM
# [4] = second compound 0.00316 µM, first compound 1 µM
# [5] = second compound 0.00316 µM, first compound 3.16 µM
# [6] = second compound 0.00316 µM, first compound 10 µM
# [7] = second compound 0.01 µM, first compound 0.0316 µM
# [8] = second compound 0.01 µM, first compound 0.1 µM
# [9] = second compound 0.01 µM, first compound 0.316 µM
# [10] = second compound 0.01 µM, first compound 1 µM
# [11] = second compound 0.01 µM, first compound 3.16 µM
# [12] = second compound 0.01 µM, first compound 10 µM
# [13] = second compound 0.0316 µM, first compound 0.0316 µM
# [14] = second compound 0.0316 µM, first compound 0.1 µM
# [15] = second compound 0.0316 µM, first compound 0.316 µM
# [16] = second compound 0.0316 µM, first compound 1 µM
# [17] = second compound 0.0316 µM, first compound 3.16 µM
# [18] = second compound 0.0316 µM, first compound 10 µM
# [19] = second compound 0.1 µM, first compound 0.0316 µM
# [20] = second compound 0.1 µM, first compound 0.1 µM
# [21] = second compound 0.1 µM, first compound 0.316 µM
# [22] = second compound 0.1 µM, first compound 1 µM
# [23] = second compound 0.1 µM, first compound 3.16 µM
# [24] = second compound 0.1 µM, first compound 10 µM
# [25] = second compound 0.316 µM, first compound 0.0316 µM
# [26] = second compound 0.316 µM, first compound 0.1 µM
# [27] = second compound 0.316 µM, first compound 0.316 µM
# [28] = second compound 0.316 µM, first compound 1 µM
# [29] = second compound 0.316 µM, first compound 3.16 µM
# [30] = second compound 0.316 µM, first compound 10 µM
# [31] = second compound 1 µM, first compound 0.0316 µM
# [32] = second compound 1 µM, first compound 0.1 µM
# [33] = second compound 1 µM, first compound 0.316 µM
# [34] = second compound 1 µM, first compound 1 µM
# [35] = second compound 1 µM, first compound 3.16 µM
# [36] = second compound 1 µM, first compound 10 µM
# 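Also: spheroids exposed to compounds for seven days before reading.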
compound,measurement,setting,value
C=CC(=O)N1CCN(c2nc(=O)n(-c3c(C)ccnc3C(C)C)c3nc(-c4c(O)cccc4F)c(F)cc23)C(C)C1 (stereo not drawn) + CC(Nc1ccc2c(c1)OCCn1cc(N3C(=O)OCC3C(F)F)nc1-2)C(N)=O,IC50,second compound 0.00316 µM,> 10 µM
same,IC50,second compound 0.01 µM,> 10 µM
same,IC50,second compound 0.0316 µM,> 10 µM
same,IC50,second compound 0.1 µM,> 10 µM
same,IC50,second compound 0.316 µM,> 10 µM
same,IC50,second compound 1 µM,> 10 µM
same,"viability, T/C",[1],117%
same,"viability, T/C",[2],108%
same,"viability, T/C",[3],114%
same,"viability, T/C",[4],85.1%
same,"viability, T/C",[5],101%
same,"viability, T/C",[6],101%
same,"viability, T/C",[7],166%
same,"viability, T/C",[8],98%
same,"viability, T/C",[9],101%
same,"viability, T/C",[10],120%
same,"viability, T/C",[11],111%
same,"viability, T/C",[12],123%
same,"viability, T/C",[13],124%
same,"viability, T/C",[14],117%
same,"viability, T/C",[15],103%
same,"viability, T/C",[16],116%
same,"viability, T/C",[17],91.5%
same,"viability, T/C",[18],83.6%
same,"viability, T/C",[19],127%
same,"viability, T/C",[20],88.1%
same,"viability, T/C",[21],87.7%
same,"viability, T/C",[22],98.4%
same,"viability, T/C",[23],96.3%
same,"viability, T/C",[24],111%
same,"viability, T/C",[25],101%
same,"viability, T/C",[26],101%
same,"viability, T/C",[27],79.7%
same,"viability, T/C",[28],110%
same,"viability, T/C",[29],95.3%
same,"viability, T/C",[30],80.1%
same,"viability, T/C",[31],89.2%
same,"viability, T/C",[32],98.1%
same,"viability, T/C",[33],81.8%
same,"viability, T/C",[34],83.4%
same,"viability, T/C",[35],81.9%
same,"viability, T/C",[36],83.7%
CCN1CCN(Cc2ccc(Nc3ncc(F)c(-c4cc(F)c5nc(C)n(C(C)C)c5c4)n3)nc2)CC1 + CC(Nc1ccc2c(c1)OCCn1cc(N3C(=O)OCC3C(F)F)nc1-2)C(N)=O,IC50,second compound 0.00316 µM,> 1 µM
same,IC50,second compound 0.01 µM,> 1 µM
same,IC50,second compound 0.0316 µM,> 1 µM
same,IC50,second compound 0.1 µM,> 1 µM
same,IC50,second compound 0.316 µM,0.712 µM
same,IC50,second compound 1 µM,0.332 µM
same,"viability, T/C","second compound 0.00316 µM, first compound 0.00316 µM",113%
same,"viability, T/C","second compound 0.00316 µM, first compound 0.01 µM",93.7%
same,"viability, T/C",[1],88.2%
same,"viability, T/C",[2],101%
same,"viability, T/C",[3],82.7%
same,"viability, T/C",[4],73.2%
same,"viability, T/C","second compound 0.01 µM, first compound 0.00316 µM",95.2%
same,"viability, T/C","second compound 0.01 µM, first compound 0.01 µM",96.7%
same,"viability, T/C",[7],90.9%
same,"viability, T/C",[8],102%
same,"viability, T/C",[9],143%
same,"viability, T/C",[10],71.3%
same,"viability, T/C","second compound 0.0316 µM, first compound 0.00316 µM",99%
same,"viability, T/C","second compound 0.0316 µM, first compound 0.01 µM",95.1%
same,"viability, T/C",[13],95.2%
same,"viability, T/C",[14],117%
same,"viability, T/C",[15],111%
same,"viability, T/C",[16],74.7%
same,"viability, T/C","second compound 0.1 µM, first compound 0.00316 µM",91.8%
same,"viability, T/C","second compound 0.1 µM, first compound 0.01 µM",91.3%
same,"viability, T/C",[19],94.3%
same,"viability, T/C",[20],79.3%
same,"viability, T/C",[21],94.1%
same,"viability, T/C",[22],59.1%
same,"viability, T/C","second compound 0.316 µM, first compound 0.00316 µM",78.2%
same,"viability, T/C","second compound 0.316 µM, first compound 0.01 µM",79.8%
same,"viability, T/C",[25],75.6%
same,"viability, T/C",[26],71.1%
same,"viability, T/C",[27],83.8%
same,"viability, T/C",[28],38.4%
same,"viability, T/C","second compound 1 µM, first compound 0.00316 µM",79.7%
same,"viability, T/C","second compound 1 µM, first compound 0.01 µM",67.2%
same,"viability, T/C",[31],83.4%
same,"viability, T/C",[32],82.4%
same,"viability, T/C",[33],51%
same,"viability, T/C",[34],28.2%
Cn1ncc(Cl)c1-c1cc(C(=O)NC(CN)Cc2cccc(F)c2)sc1Cl (stereo not drawn) + CC(Nc1ccc2c(c1)OCCn1cc(N3C(=O)OCC3C(F)F)nc1-2)C(N)=O,IC50,second compound 0.00316 µM,> 10 µM
same,IC50,second compound 0.01 µM,> 10 µM
same,IC50,second compound 0.0316 µM,> 10 µM
same,IC50,second compound 0.1 µM,> 10 µM
same,IC50,second compound 0.316 µM,> 10 µM
same,IC50,second compound 1 µM,> 10 µM
same,"viability, T/C",[1],82%
same,"viability, T/C",[2],76.6%
same,"viability, T/C",[3],66.5%
same,"viability, T/C",[4],70%
same,"viability, T/C",[5],58.5%
same,"viability, T/C",[6],73.8%
same,"viability, T/C",[7],80.1%
same,"viability, T/C",[8],75.4%
same,"viability, T/C",[9],95.7%
same,"viability, T/C",[10],75.8%
same,"viability, T/C",[11],66.7%
same,"viability, T/C",[12],95.7%
same,"viability, T/C",[13],99.8%
same,"viability, T/C",[14],88.3%
same,"viability, T/C",[15],95.9%
same,"viability, T/C",[16],71.6%
same,"viability, T/C",[17],62.3%
same,"viability, T/C",[18],96%
same,"viability, T/C",[19],93.2%
same,"viability, T/C",[20],86.1%
same,"viability, T/C",[21],78.4%
same,"viability, T/C",[22],71.8%
same,"viability, T/C",[23],62.2%
same,"viability, T/C",[24],81.5%
same,"viability, T/C",[25],70.6%
same,"viability, T/C",[26],79.5%
same,"viability, T/C",[27],77.1%
same,"viability, T/C",[28],83.9%
same,"viability, T/C",[29],63.6%
same,"viability, T/C",[30],65.4%
same,"viability, T/C",[31],70.3%
same,"viability, T/C",[32],56.6%
same,"viability, T/C",[33],68.5%
same,"viability, T/C",[34],74%
same,"viability, T/C",[35],39.6%
same,"viability, T/C",[36],66.4%
Cn1nccc1Nc1nccc(-c2ccn(C(CO)c3ccc(Cl)c(F)c3)c(=O)c2)n1 (stereo not drawn) + CC(Nc1ccc2c(c1)OCCn1cc(N3C(=O)OCC3C(F)F)nc1-2)C(N)=O,IC50,second compound 0.00316 µM,> 10 µM
same,IC50,second compound 0.01 µM,> 10 µM
same,IC50,second compound 0.0316 µM,> 10 µM
same,IC50,second compound 0.1 µM,> 10 µM
same,IC50,second compound 0.316 µM,> 10 µM
same,IC50,second compound 1 µM,> 10 µM
same,"viability, T/C",[1],92.2%
same,"viability, T/C",[2],114%
same,"viability, T/C",[3],88.5%
same,"viability, T/C",[4],102%
same,"viability, T/C",[5],90.7%
same,"viability, T/C",[6],79.9%
same,"viability, T/C",[7],124%
same,"viability, T/C",[8],109%
same,"viability, T/C",[9],101%
same,"viability, T/C",[10],89.1%
same,"viability, T/C",[11],91.9%
same,"viability, T/C",[12],74.8%
same,"viability, T/C",[13],118%
same,"viability, T/C",[14],102%
same,"viability, T/C",[15],92.6%
same,"viability, T/C",[16],80%
same,"viability, T/C",[17],83.6%
same,"viability, T/C",[18],77.6%
same,"viability, T/C",[19],113%
same,"viability, T/C",[20],90.6%
same,"viability, T/C",[21],124%
same,"viability, T/C",[22],111%
same,"viability, T/C",[23],101%
same,"viability, T/C",[24],73.9%
same,"viability, T/C",[25],74.3%
same,"viability, T/C",[26],105%
same,"viability, T/C",[27],86.5%
same,"viability, T/C",[28],83%
same,"viability, T/C",[29],85%
same,"viability, T/C",[30],81.7%
same,"viability, T/C",[31],79.2%
same,"viability, T/C",[32],72.4%
same,"viability, T/C",[33],84.3%
same,"viability, T/C",[34],89.1%
same,"viability, T/C",[35],75.5%
same,"viability, T/C",[36],83.5%

# From PubChem BioAssay AID1963972 (Molecular Pharmacology Branch, DTP, NCI, 2024)
